{
  "source": "patent US11725199B2",
  "about": "“Lactic acid bacteria with sweetening properties and uses thereof” (DUPONT NUTRITION BIOSCIENCES APS, priority 2017, dated 2023)",
  "experiment_in_all_cases": "Maximal forward velocity and Km of GlcK, glucose varied (test C)",
  "format_in_all_cases": "biochemical",
  "key": {"[1]": {"target": "T1, Streptococcus thermophilus glucokinase (GlcK) variant E275K of ST1.2, strain ST1.2m-glcK, SEQ ID NO: 22 (Streptococcus thermophilus, UniProt Q5M4Y5, E275K)", "T1 construct": "G-6PDH/NADP coupled assay", "T1 sequence (Q5M4Y5 1-322 E275K)": "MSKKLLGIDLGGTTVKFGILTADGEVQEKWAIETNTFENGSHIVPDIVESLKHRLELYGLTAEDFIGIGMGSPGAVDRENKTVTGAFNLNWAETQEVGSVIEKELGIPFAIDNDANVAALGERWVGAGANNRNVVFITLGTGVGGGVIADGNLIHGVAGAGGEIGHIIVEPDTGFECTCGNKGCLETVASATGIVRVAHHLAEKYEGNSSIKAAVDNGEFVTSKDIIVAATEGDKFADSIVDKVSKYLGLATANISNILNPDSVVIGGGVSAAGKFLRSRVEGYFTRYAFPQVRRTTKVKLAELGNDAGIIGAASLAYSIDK", "procedure": "(§1) A fresh overnight culture of a Streptococcus thermophilus strain in M17 containing 30 g/L lactose was obtained and used to inoculate at 1% (vol/vol) 10 ml of fresh M17 30 g/L lactose. Cells were harvested by centrifugation (6000 g, 10 min, 4° C.) at a 600 nm optical density (OD600) of 0.8+/−0.2, washed in 5 ml cold GLCK buffer (5 mM MgCl2, 10 mM K2HPO4/KH2PO4 [pH 7.2]), and resuspended in 500 μl cold GLCK buffer. EDTA-free protease inhibitors “cOmplete™” (Roche, supplier reference 04693132001) was added in GLCK buffer as described by the provider. Cells were disrupted by the addition of 100 mg glass beads (150-212 μm, Sigma G1145) to 200 μl resuspended cells and oscillation at a frequency of 30 cycles/s for 6 min in a MM200 oscillating mill (Retsch, Haan, Germany). Cell debris and glass beads were removed by centrifugation (14000 g, 15 min, 4° C.), and supernatant transferred into a clean 1.5 mL centrifuge tube kept on ice. Total protein content was determined by using the FLUKA Protein Quantification Kit-Rapid (ref 51254). The glucokinase activity in the cell extracts was determined spectrophotometrically by a glucose-6-phosphate dehydrogenase (G-6PDH, EC1.1.1.49):[…] assay (Porter et al., 1982), essentially as described by Pool et al. (2006). […] The optical density at 340 nm was measured for 5 minutes by using a Synergy HT multi-detection microplate reader (BIO-TEK). […] Glucokinase activity was calculated as follows:\n(§2) Glucokinase activity (U/g of total protein extract)=dOD×V/[dt×l×ε×Qprot], wherein: • dOD is the variation of optical density (OD) at 340 nm • V is the volume of the reaction (herein 250 μL)\n(§3) Measurements were triplicated for each sample, and the glucokinase specific activity values given herein under test A are the mean of three independent experiments.\n(§4) Measurements were triplicated for each sample, and the Vmax values given herein under test C are the mean of three independent experiments.\n(§5) The respective mutants were called ST1.1m-glcK and ST1.2m-glcK. The GlcK sequence of these 2 mutants is as defined in SEQ ID NO:22."}, "[2]": {"target": "T2, Streptococcus thermophilus glucokinase (GlcK) of strain ST1.2 (parent) (Streptococcus thermophilus, UniProt Q5M4Y5)", "T2 construct": "G-6PDH/NADP coupled assay", "T2 sequence (Q5M4Y5 1-322)": "T1 sequence (Q5M4Y5 1-322 E275K) with K275E", "procedure": "as §1, §2, §3, §4, §5"}, "[3]": {"target": "T3, Streptococcus thermophilus glucokinase (GlcK) variant E275K of ST1.1, strain ST1.1m-glcK, SEQ ID NO: 22 (Streptococcus thermophilus, UniProt Q5M4Y5, E275K)", "T3 construct": "G-6PDH/NADP coupled assay", "T3 sequence (Q5M4Y5 1-322 E275K)": "T1 sequence (Q5M4Y5 1-322 E275K)", "procedure": "as §1, §2, §3, §4, §5"}, "[4]": {"target": "T4, Streptococcus thermophilus glucokinase (GlcK) of strain ST1.1 (parent) (Streptococcus thermophilus, UniProt Q5M4Y5)", "T4 construct": "G-6PDH/NADP coupled assay", "T4 sequence (Q5M4Y5 1-322)": "T1 sequence (Q5M4Y5 1-322 E275K) with K275E", "procedure": "as §1, §2, §3, §4, §5"}, "[5]": {"target": "T5, Streptococcus thermophilus glucokinase (GlcK) of strain DGCC7710 (DSM28255, GlcK type ST1), non-mutated, SEQ ID NO: 2 (Streptococcus thermophilus, UniProt Q5M4Y5)", "T5 construct": "G-6PDH/NADP coupled assay", "T5 sequence (Q5M4Y5 1-322)": "T1 sequence (Q5M4Y5 1-322 E275K) with K275E", "conditions": "DGCC7710 crude extract; glucose 0, 5, 10, 15, 20 mM; 1 mM ATP; pH 7.2; 30° C; average of three experiments", "protocol": "The linear regression representing the inverse of the specific velocity in function of the inverse of the glucose concentration gives the inverse of the maximal forward velocity at the intersection with the Y-axis of the graphic.\nA fresh overnight culture of a Streptococcus thermophilus strain in M17 containing 30 g/L lactose was obtained and used to inoculate at 1% (vol/vol) 10 ml of fresh M17 30 g/L lactose. Cells were harvested by centrifugation (6000 g, 10 min, 4° C.) at a 600 nm optical density (OD600) of 0.8+/−0.2, washed in 5 ml cold GLCK buffer (5 mM MgCl2, 10 mM K2HPO4/KH2PO4 [pH 7.2]), and resuspended in 500 μl cold GLCK buffer. EDTA-free protease inhibitors “cOmplete™” (Roche, supplier reference 04693132001) was added in GLCK buffer as described by the provider. Cells were disrupted by the addition of 100 mg glass beads (150-212 μm, Sigma G1145) to 200 μl resuspended cells and oscillation at a frequency of 30 cycles/s for 6 min in a MM200 oscillating mill (Retsch, Haan, Germany). […] Total protein content was determined by using the FLUKA Protein Quantification Kit-Rapid (ref 51254). […] The optical density at 340 nm was measured for 5 minutes by using a Synergy HT multi-detection microplate reader (BIO-TEK). […] Glucokinase activity was calculated as follows: […]"}, "[6]": {"target": "T6, Streptococcus thermophilus glucokinase (GlcK) variant E275K of DGCC7710, strain DSM32587 (DGCC12534), SEQ ID NO: 22 (Streptococcus thermophilus, UniProt Q5M4Y5, E275K)", "T6 construct": "G-6PDH/NADP coupled assay", "T6 sequence (Q5M4Y5 1-322 E275K)": "T1 sequence (Q5M4Y5 1-322 E275K)", "conditions": "DSM32587 crude extract, glucose 0, 5, 10, 15, 20 mM, 1 mM ATP, pH 7.2, 30° C", "procedure": "A fresh overnight culture of a Streptococcus thermophilus strain in M17 containing 30 g/L lactose was obtained and used to inoculate at 1% (vol/vol) 10 ml of fresh M17 30 g/L lactose. Cells were harvested by centrifugation (6000 g, 10 min, 4° C.) at a 600 nm optical density (OD600) of 0.8+/−0.2, washed in 5 ml cold GLCK buffer (5 mM MgCl2, 10 mM K2HPO4/KH2PO4 [pH 7.2]), and resuspended in 500 μl cold GLCK buffer. EDTA-free protease inhibitors “cOmplete™” (Roche, supplier reference 04693132001) was added in GLCK buffer as described by the provider. Cells were disrupted by the addition of 100 mg glass beads (150-212 μm, Sigma G1145) to 200 μl resuspended cells and oscillation at a frequency of 30 cycles/s for 6 min in a MM200 oscillating mill (Retsch, Haan, Germany). […] Total protein content was determined by using the FLUKA Protein Quantification Kit-Rapid (ref 51254). The glucokinase activity in the cell extracts was determined spectrophotometrically by a glucose-6-phosphate dehydrogenase (G-6PDH, EC1.1.1.49):[…] assay (Porter et al., 1982), essentially as described by Pool et al. (2006). […] The optical density at 340 nm was measured for 5 minutes by using a Synergy HT multi-detection microplate reader (BIO-TEK). […] Glucokinase activity was calculated as follows: […]"}},
  "note": "Changes are numbered by the printed parent chain.",
  "data": [
    {"smiles": "OC[C@H]1OC(O)[C@H](O)[C@@H](O)[C@@H]1O", "note": "(some centres unmarked) [glucose]", "values": [
      {"measurement": "Vmax Glucokinase (glucose)", "setting": "[1]; ST1.2m-glcK crude extract, glucose 0, 5, 10, 15, 20 mM, 1 mM ATP, pH 7.2, 30° C, average of three experiments", "value": 501, "unit": "U/g total protein extract"},
      {"measurement": "Vm Glucokinase (glucose)", "setting": "[1]; ST1.2m-glcK, summary table", "value": 501},
      {"measurement": "Vm Glucokinase (glucose)", "setting": "[2]; ST1.2, summary table", "value": 2431},
      {"measurement": "Vmax Glucokinase (glucose)", "setting": "[2]; ST1.2 crude extract, glucose 0, 5, 10, 15, 20 mM, 1 mM ATP, pH 7.2, 30° C, average of three experiments", "value": 2431, "unit": "U/g total protein extract"},
      {"measurement": "Vmax Glucokinase (glucose)", "setting": "[3]; ST1.1m-glcK crude extract, glucose 0, 5, 10, 15, 20 mM, 1 mM ATP, pH 7.2, 30° C, average of three experiments", "value": 795, "unit": "U/g total protein extract"},
      {"measurement": "Vm Glucokinase (glucose)", "setting": "[3]; ST1.1m-glcK, summary table", "value": 795},
      {"measurement": "Vm Glucokinase (glucose)", "setting": "[4]; ST1.1, summary table", "value": 2687},
      {"measurement": "Vmax Glucokinase (glucose)", "setting": "[4]; ST1.1 crude extract, glucose 0, 5, 10, 15, 20 mM, 1 mM ATP, pH 7.2, 30° C, average of three experiments", "value": 2687, "unit": "U/g total protein extract"},
      {"measurement": "Vmax Glucokinase (glucose)", "setting": "[5]", "value": 2855, "unit": "U/g total protein extract"},
      {"measurement": "Vmax Glucokinase (glucose)", "setting": "[6]; average of three experiments", "value": 914, "unit": "U/g total protein extract"},
      {"measurement": "Km", "setting": "[6]; read-out: Km Glucokinase (glucose), average", "value": 1330, "unit": "µM"}
    ]}
  ]
}
